Legend:
Assay in all cases: minimum inhibition concentration and Kull synergy index of LAE / potassium sorbate
Assay type in all cases: cell-based
[1] = tested on: Staphylococcus aureus (ATCC 6538); conditions: for SI, synergy index: <1 synergism, 1 addition, >1 antagonism
Protocol: (§1) The invention is now explained by a number of examples. In these examples LAE and sorbate alone and in a number of different combinations have been investigated against a number of bacterial preparations. For the analysis usually an internal method was used. Conditions and medium were Mueller Hinton broth (pH 7.4) or (pH 5.0) for bacteria, Sabouraud broth (pH 5.8) for yeast and Sabouraud medium for moulds. The interaction of the two components of the antimicrobial mixture is calculated according to the method described by Kull et al. (Kull […]. and Mayer R. L., Applied Microbiology, 1961; 6:538-541). According to this method the so-called synergy index is calculated according to the following formula: Synergy index […]. […] Again the effects of the components alone and in combination have been calculated using the same method as described at Example 1.

[2] = tested on: Bacillus megaterium (CECT 44); conditions: pH 7.4, aqueous solutions
Protocol: as §1

[3] = tested on: Candida albicans (ATCC 10231); conditions: for SI, synergy index: <1 synergism, 1 addition, >1 antagonism
Protocol: The invention is now explained by a number of examples. In these examples LAE and sorbate alone and in a number of different combinations have been investigated against a number of bacterial preparations. For the analysis usually an internal method was used. […] The interaction of the two components of the antimicrobial mixture is calculated according to the method described by Kull et al. (Kull […]. and Mayer R. L., Applied Microbiology, 1961; 6:538-541). According to this method the so-called synergy index is calculated according to the following formula: Synergy index […]. […] The same method was used as described for example 1. […] Again the effects of the components alone and in combination have been calculated using the same method as described at Example 1.

[4] = tested on: Penicillium camemberti (CECT 2267); conditions: for SI, synergy index: <1 synergism, 1 addition, >1 antagonism
Protocol: (§2) The invention is now explained by a number of examples. In these examples LAE and sorbate alone and in a number of different combinations have been investigated against a number of bacterial preparations. For the analysis usually an internal method was used. Conditions and medium were Mueller Hinton broth (pH 7.4) or (pH 5.0) for bacteria, Sabouraud broth (pH 5.8) for yeast and Sabouraud medium for moulds. The interaction of the two components of the antimicrobial mixture is calculated according to the method described by Kull et al. (Kull […]. and Mayer R. L., Applied Microbiology, 1961; 6:538-541). According to this method the so-called synergy index is calculated according to the following formula: Synergy index […]. […] The same method was used as described for example 1. […] Again the effects of the components alone and in combination have been calculated using the same method as described at Example 1.

[5] = tested on: Cladosporium cladosporioides (ATCC 16022); conditions: for SI, synergy index: <1 synergism, 1 addition, >1 antagonism
Protocol: as §2

[6] = tested on: Citrobacter intermedium (CECT 401); conditions: for SI, synergy index: <1 synergism, 1 addition, >1 antagonism
Protocol: as §2

[7] = tested on: Enterobacter aerogenes (ATCC 13048); conditions: for SI, synergy index: <1 synergism, 1 addition, >1 antagonism
Protocol: as §2

[8] = tested on: Escherichia coli (ATCC 8739); conditions: for SI, synergy index: <1 synergism, 1 addition, >1 antagonism
Protocol: as §2

CCCCCCCCCCCC(=O)N[C@@H](CCCNC(=N)N)C(=O)OCC.Cl [LAE, L-arginine, N^α-lauroyl-ethylester monohydrochloride]
25.60: QLAE, minimum inhibition concentration of LAE as single antimicrobial ([3]; pH 7.4, aqueous solutions) | Qlae, minimum inhibition concentration of LAE in the mixture ([3]; pH 7.4, aqueous solutions)
0: Qs, minimum inhibition concentration of potassium sorbate in the mixture ([1]; pH 5.0) | Qs, minimum inhibition concentration of potassium sorbate in the mixture ([1]; pH 7.4, aqueous solutions) | Qs, minimum inhibition concentration of potassium sorbate in the mixture [2] | Qs, minimum inhibition concentration of potassium sorbate in the mixture ([3]; pH 5.0) | Qs, minimum inhibition concentration of potassium sorbate in the mixture ([4]; pH 5.0) | Qs, minimum inhibition concentration of potassium sorbate in the mixture ([4]; pH 7.4, aqueous solutions) | Qs, minimum inhibition concentration of potassium sorbate in the mixture ([5]; pH 5.0) | Qs, minimum inhibition concentration of potassium sorbate in the mixture ([5]; pH 7.4, aqueous solutions) | Qs, minimum inhibition concentration of potassium sorbate in the mixture ([6]; pH 5.0) | Qs, minimum inhibition concentration of potassium sorbate in the mixture ([6]; pH 7.4, aqueous solutions) | Qs, minimum inhibition concentration of potassium sorbate in the mixture ([7]; pH 5.0) | Qs, minimum inhibition concentration of potassium sorbate in the mixture ([7]; pH 7.4, aqueous solutions) | Qs, minimum inhibition concentration of potassium sorbate in the mixture ([8]; pH 5.0) | Qs, minimum inhibition concentration of potassium sorbate in the mixture ([8]; pH 7.4, aqueous solutions)
6.4: QLAE, minimum inhibition concentration of LAE as single antimicrobial [2] | Qlae, minimum inhibition concentration of LAE in the mixture [2]
58.5: QLAE, minimum inhibition concentration of LAE as single antimicrobial ([4]; pH 5.0) | Qlae, minimum inhibition concentration of LAE in the mixture ([4]; pH 5.0) | QLAE, minimum inhibition concentration of LAE as single antimicrobial ([5]; pH 5.0) | Qlae, minimum inhibition concentration of LAE in the mixture ([5]; pH 5.0)
3.2: QLAE, minimum inhibition concentration of LAE as single antimicrobial ([1]; pH 7.4, aqueous solutions) | Qlae, minimum inhibition concentration of LAE in the mixture ([1]; pH 7.4, aqueous solutions)
1: Qlae/QLAE [2]
0.00: Qs/QS ([1]; pH 5.0) | Qs/QS ([1]; pH 7.4, aqueous solutions) | Qs/QS [2] | Qs/QS ([3]; pH 5.0) | Qs, minimum inhibition concentration of potassium sorbate in the mixture ([3]; pH 7.4, aqueous solutions) | Qs/QS ([3]; pH 7.4, aqueous solutions) | Qs/QS ([4]; pH 5.0) | Qs/QS ([4]; pH 7.4, aqueous solutions) | Qs/QS ([5]; pH 5.0) | Qs/QS ([5]; pH 7.4, aqueous solutions) | Qs/QS ([6]; pH 5.0) | Qs/QS ([6]; pH 7.4, aqueous solutions) | Qs/QS ([7]; pH 5.0) | Qs/QS ([7]; pH 7.4, aqueous solutions) | Qs/QS ([8]; pH 5.0) | Qs/QS ([8]; pH 7.4, aqueous solutions)
12.8: QLAE, minimum inhibition concentration of LAE as single antimicrobial ([6]; pH 5.0) | Qlae, minimum inhibition concentration of LAE in the mixture ([6]; pH 5.0)
25.6: QLAE, minimum inhibition concentration of LAE as single antimicrobial ([5]; pH 7.4, aqueous solutions) | Qlae, minimum inhibition concentration of LAE in the mixture ([5]; pH 7.4, aqueous solutions) | QLAE, minimum inhibition concentration of LAE as single antimicrobial ([6]; pH 7.4, aqueous solutions) | Qlae, minimum inhibition concentration of LAE in the mixture ([6]; pH 7.4, aqueous solutions) | QLAE, minimum inhibition concentration of LAE as single antimicrobial ([8]; pH 7.4, aqueous solutions) | Qlae, minimum inhibition concentration of LAE in the mixture ([8]; pH 7.4, aqueous solutions)
1.0: Qlae/QLAE ([1]; pH 7.4, aqueous solutions)
29.3: QLAE, minimum inhibition concentration of LAE as single antimicrobial ([1]; pH 5.0) | Qlae, minimum inhibition concentration of LAE in the mixture ([1]; pH 5.0) | QLAE, minimum inhibition concentration of LAE as single antimicrobial ([3]; pH 5.0) | Qlae, minimum inhibition concentration of LAE in the mixture ([3]; pH 5.0)
21.5: QLAE, minimum inhibition concentration of LAE as single antimicrobial ([7]; pH 5.0) | Qlae, minimum inhibition concentration of LAE in the mixture ([7]; pH 5.0) | QLAE, minimum inhibition concentration of LAE as single antimicrobial ([8]; pH 5.0) | Qlae, minimum inhibition concentration of LAE in the mixture ([8]; pH 5.0)
68.2: QLAE, minimum inhibition concentration of LAE as single antimicrobial ([4]; pH 7.4, aqueous solutions) | Qlae, minimum inhibition concentration of LAE in the mixture ([4]; pH 7.4, aqueous solutions) | Qlae, minimum inhibition concentration of LAE in the mixture ([7]; pH 7.4, aqueous solutions)
1.00: Qlae/QLAE ([1]; pH 5.0) | SI, synergy index ([1]; pH 5.0) | SI, synergy index ([1]; pH 7.4, aqueous solutions) | SI, synergy index ([2]; <1 synergism, 1 addition, >1 antagonism) | Qlae/QLAE ([3]; pH 5.0) | SI, synergy index ([3]; pH 5.0) | Qlae/QLAE ([3]; pH 7.4, aqueous solutions) | SI, synergy index ([3]; pH 7.4, aqueous solutions) | Qlae/QLAE ([4]; pH 5.0) | SI, synergy index ([4]; pH 5.0) | Qlae/QLAE ([4]; pH 7.4, aqueous solutions) | SI, synergy index ([4]; pH 7.4, aqueous solutions) | Qlae/QLAE ([5]; pH 5.0) | SI, synergy index ([5]; pH 5.0) | Qlae/QLAE ([5]; pH 7.4, aqueous solutions) | SI, synergy index ([5]; pH 7.4, aqueous solutions) | Qlae/QLAE ([6]; pH 5.0) | SI, synergy index ([6]; pH 5.0) | Qlae/QLAE ([6]; pH 7.4, aqueous solutions) | SI, synergy index ([6]; pH 7.4, aqueous solutions) | Qlae/QLAE ([7]; pH 5.0) | SI, synergy index ([7]; pH 5.0) | SI, synergy index ([7]; pH 7.4, aqueous solutions) | Qlae/QLAE ([8]; pH 5.0) | SI, synergy index ([8]; pH 5.0) | Qlae/QLAE ([8]; pH 7.4, aqueous solutions) | SI, synergy index ([8]; pH 7.4, aqueous solutions)

From US7074447B2 (Laboratories Miret, S.A., priority 2001, dated 2006)
